{"source": "patent US5650444A", "about": "“Substituted biphenyl derivatives” (American Home Products Corporation, priority 1995, dated 1997)", "test_system": "PDE IV", "assay": "Test Procedure No. 2: functional inhibition of PDE IV (relaxation of guinea pig tracheal rings precontracted with carbachol)", "type": "cell-based, guinea pig (male Hartley)", "conditions": "in presence of CI-930 (10 μM)", "method": "The following standard test is also employed to assess the abilities of compounds to inhibit PDE IV functionally. […]\nTracheal relaxation resulting from the inhibition of PDE-IV or PDE-III was assessed by a method similar to that employed by Harris et al. (1989). […] The functional inhibition of PDE-IV or PDE-III was determined by adding a test compound to the tissue bath in cumulatively increasing concentrations and monitoring the degree of relaxation induced in the continued presence of CI-930 or rolipram (respectively). […] Percent relaxations produced by each concentration of test compound were calculated as a percentage relaxation of tension maintained in the presence of the preincubating PDE inhibitor, relative to the final resting tension determined at the end of each experiment. […]", "data": [{"smiles": "COC(=O)c1cccc(-c2ccc(OC)c(OC3CCCC3)c2)c1", "note": "[Example 18, 3'-Cyclopentyloxy-4'-methoxy-biphenyl-3-carboxylic acid methyl ester]", "values": [{"measurement": "IC50", "result": 120, "unit": "nM"}]}]}
